The values that follow come from PubChem BioAssay AID248 (DTP/NCI, 2004).

The experiment concerns L1210 leukemia ip in BDF1 mice, survival T/C. In words: NCI In Vivo Anticancer Drug Screen. Data for tumor model L1210 Leukemia (intraperitoneal) in B6D2F1 (BDF1) mice. Particulars: endpoint: mean survival time, higher = longer survival. An outline of the steps:
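Survival endpoint. Drug-treated group vs vehicle group, expressed as T divided by C. Tumor passaged by transplantation.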

[1] abbreviates: dose: 100.0 mg/kg/injection, schedule: Q01DX009 (ip), vehicle: Klucel (hydroxypropylcellulose) (HPC).
The mark [2] stands for this setting: dose: 200.0 mg/kg/injection, schedule: Q01DX009 (ip), vehicle: Klucel (hydroxypropylcellulose) (HPC).
Setting [3] is: dose: 400.0 mg/kg/injection, schedule: Q01DX009 (ip), vehicle: Klucel (hydroxypropylcellulose) (HPC).
The mark [4] stands for this setting: dose: 100.0 mg/kg/injection, schedule: Q04DX003 (ip), vehicle: saline with Tween-80.
The mark [5] stands for this setting: dose: 200.0 mg/kg/injection, schedule: Q04DX003 (ip), vehicle: saline with Tween-80.
Where [6] appears, read: dose: 100.0 mg/kg/injection, schedule: Q01DX001 (ip), vehicle: saline.
Where [7] appears, read: dose: 100.0 mg/kg/injection, schedule: Q04DX003 (ip), vehicle: saline.
Where [8] appears, read: dose: 200.0 mg/kg/injection, schedule: Q01DX001 (ip), vehicle: saline.
The mark [9] stands for this setting: dose: 200.0 mg/kg/injection, schedule: Q04DX003 (ip), vehicle: saline.
Where [10] appears, read: dose: 400.0 mg/kg/injection, schedule: Q01DX001 (ip), vehicle: saline.
Where [11] appears, read: dose: 400.0 mg/kg/injection, schedule: Q04DX003 (ip), vehicle: saline.
The mark [12] stands for this setting: dose: 100.0 mg/kg/injection, schedule: Q01DX001 (ip), vehicle: carboxymethylcellulose (CMC).
Where [13] appears, read: dose: 200.0 mg/kg/injection, schedule: Q01DX001 (ip), vehicle: carboxymethylcellulose (CMC).
The mark [14] stands for this setting: dose: 25.0 mg/kg/injection, schedule: Q01DX009 (ip), vehicle: saline with Tween-80.
Where [15] appears, read: dose: 50.0 mg/kg/injection, schedule: Q01DX009 (ip), vehicle: saline with Tween-80.
Setting [16] is: dose: 100.0 mg/kg/injection, schedule: Q01DX009 (ip), vehicle: saline with Tween-80.
Where [17] appears, read: dose: 200.0 mg/kg/injection, schedule: Q01DX009 (ip), vehicle: saline with Tween-80.
[18] abbreviates: dose: 400.0 mg/kg/injection, schedule: Q04DX003 (ip), vehicle: saline with Tween-80.

SMILES strings stand for the structures. Several values for one entry are separate records, joined by “and”; a condition that tells them apart may be missing. Equal entries are not always repeated. Inconclusive results and toxic doses are left out.

Take `CN(CCO)C(=O)/C=C/c1ccc(O)cc1`: the T/C runs as follows: (dose: 50.0 mg/kg/injection, schedule: Q01DX009 (ip), vehicle: saline) 95 % of control; (dose: 100.0 mg/kg/injection, schedule: Q01DX009 (ip), vehicle: saline) 95 % of control; (dose: 200.0 mg/kg/injection, schedule: Q01DX009 (ip), vehicle: saline) 101 % of control.
For `O=C(Nc1ccccc1)P(=O)(O)c1ccccc1`, the T/C (dose: 62.5 mg/kg/injection, schedule: Q01DX001 (ip), vehicle: Klucel (hydroxypropylcellulose) (HPC)) is 102 % of control; the T/C (dose: 125.0 mg/kg/injection, schedule: Q01DX001 (ip), vehicle: Klucel (hydroxypropylcellulose) (HPC)) is 102 % of control; the T/C (dose: 250.0 mg/kg/injection, schedule: Q01DX001 (ip), vehicle: Klucel (hydroxypropylcellulose) (HPC)) is 92 % of control.
For `Cc1ccc(C(=O)c2cccc([N+](=O)[O-])c2)cc1`, the T/C by setting is: under setting [1], 104 % of control; under setting [2], 103 % of control; under setting [3], 98 % of control.
With `O=C1Nc2ccc(C(=O)O)c(O)c2C1=O`, the T/C by setting is: (dose: 50.0 mg/kg/injection, schedule: Q01DX001 (ip), vehicle: Klucel (hydroxypropylcellulose) (HPC)) 112 % of control; (dose: 100.0 mg/kg/injection, schedule: Q01DX001 (ip), vehicle: Klucel (hydroxypropylcellulose) (HPC)) 112 % of control; (dose: 200.0 mg/kg/injection, schedule: Q01DX001 (ip), vehicle: Klucel (hydroxypropylcellulose) (HPC)) 102 % of control.
Regarding `COc1ccccc1C(C(C)C)C(C)C`, the T/C under setting [4] is 105 % of control and the T/C under setting [5] was 101 % of control.
Turning to `O=N[O-].O=N[O-].O=N[O-].[Co+3].[NH2-].[NH2-].[NH2-]`, the T/C reads like this: under setting [6], 92 % of control; under setting [7], 119 % of control; under setting [8], 90 % of control; under setting [9], 105 % of control; under setting [10], 97 % of control; under setting [11], 97 % of control.
As to `O=S1(=O)CC(Cl)C1`, the T/C is, setting by setting: (dose: 50.0 mg/kg/injection, schedule: Q01DX001 (ip), vehicle: carboxymethylcellulose (CMC)) 107 % of control; under setting [12], 89 % of control; under setting [13], 97 % of control.
On to `CC(O)[CH2][Sb]([Br])([Br])([c]1ccccc1)[c]1ccccc1` (configuration not stated), for which the T/C (dose: 5.0 mg/kg/injection, schedule: Q04DX002 (ip), vehicle: saline with Tween-80) was 97 % of control; the T/C (dose: 10.0 mg/kg/injection, schedule: Q04DX002 (ip), vehicle: saline with Tween-80) was 104 % of control; the T/C (dose: 20.0 mg/kg/injection, schedule: Q04DX002 (ip), vehicle: saline with Tween-80) was 104 % of control.
For the molecule `N#C/C(=C\c1ccc([N+](=O)[O-])o1)[N+](=O)[O-]`, the T/C is 110 % of control under setting [14], 96 % of control under setting [15], 104 % of control under setting [16] and 106 % of control under setting [4].
Consider `CC(=O)Oc1cc(-c2ccccc2)c(OC(C)=O)cc1-c1ccccc1`, for which the T/C runs as follows: (dose: 25.0 mg/kg/injection, schedule: Q01DX009 (ip), vehicle: water) 96 % of control; (dose: 50.0 mg/kg/injection, schedule: Q01DX009 (ip), vehicle: water) 101 % of control; (dose: 100.0 mg/kg/injection, schedule: Q01DX009 (ip), vehicle: water) 94 % of control; (dose: 200.0 mg/kg/injection, schedule: Q01DX009 (ip), vehicle: water) 101 % of control; (dose: 400.0 mg/kg/injection, schedule: Q01DX009 (ip), vehicle: water) 100 % of control.
`O=C1C=CC(=O)N1c1cc(Cl)c(Cl)cc1Cl`: the T/C runs as follows: (dose: 10.0 mg/kg/injection, schedule: Q01DX001 (ip), vehicle: saline) 97 % of control; (dose: 20.0 mg/kg/injection, schedule: Q01DX001 (ip), vehicle: saline) 87 % of control; (dose: 40.0 mg/kg/injection, schedule: Q01DX001 (ip), vehicle: saline) 95 % of control.
For `C/C=C/C1N(C)CCCN1C`, the T/C was 97 % of control under setting [14]; 102 % of control (dose: 25.0 mg/kg/injection, schedule: Q04DX003 (ip), vehicle: saline with Tween-80); 98 % of control under setting [15]; 93 % of control (dose: 50.0 mg/kg/injection, schedule: Q04DX003 (ip), vehicle: saline with Tween-80); 91 % of control under setting [4].
On to `CC(=O)OCC1OC(SSCc2ccccc2)C(OC(C)=O)C(OC(C)=O)C1OC(C)=O` (configuration not stated), for which the T/C by setting is: under setting [6], 96 % of control; under setting [8], 93 % of control; under setting [10], 93 % of control.
Turning to `NC(=O)c1cc(O)c(O)c(O)c1`, the T/C is 102 % of control under setting [6], 102 % of control under setting [8] and 102 % of control under setting [10].
As to `Cc1cccc2c(Nc3ccc(NS(C)(=O)=O)cc3)c3ccc([N+](=O)[O-])cc3nc12`, the T/C runs as follows: (dose: 4.8 mg/kg/injection, schedule: Q01DX009 (ip), vehicle: Klucel (hydroxypropylcellulose) (HPC)) 151 % of control; (dose: 9.5 mg/kg/injection, schedule: Q01DX009 (ip), vehicle: Klucel (hydroxypropylcellulose) (HPC)) 176 % of control; (dose: 10.0 mg/kg/injection, schedule: Q01DX009 (sc), vehicle: saline) 107 % of control; (dose: 19.0 mg/kg/injection, schedule: Q01DX009 (ip), vehicle: Klucel (hydroxypropylcellulose) (HPC)) 154 % of control; (dose: 20.0 mg/kg/injection, schedule: Q01DX009 (sc), vehicle: saline) 121 % of control; (dose: 40.0 mg/kg/injection, schedule: Q01DX009 (sc), vehicle: saline) 123 % of control. For the same molecule, the T/C (dose: 80.0 mg/kg/injection, schedule: Q01DX009 (sc), vehicle: saline) was 152 % of control; the T/C (dose: 178.0 mg/kg/injection, schedule: Q01DX001 (ip), vehicle: saline) is 102 % of control; the T/C (dose: 267.0 mg/kg/injection, schedule: Q01DX001 (ip), vehicle: saline) is 97 % of control; the T/C under setting [10] was 103 % of control.
With `C/C=C/C[P+](Cc1ccccc1)(c1ccccc1)c1ccccc1`, the T/C is, setting by setting: (dose: 3.13 mg/kg/injection, schedule: Q01DX009 (ip), vehicle: saline with Tween-80) 103 % of control; (dose: 12.5 mg/kg/injection, schedule: Q01DX009 (ip), vehicle: saline with Tween-80) 120 % of control and 91 % of control.
In the case of `Oc1ccc(N=C/C=C/c2ccccc2)cc1`, the T/C is 86 % of control under setting [12]; 89 % of control under setting [13]; 91 % of control (dose: 400.0 mg/kg/injection, schedule: Q01DX001 (ip), vehicle: carboxymethylcellulose (CMC)).
As to `CC(C)C(=O)c1ccc([N+](=O)[O-])o1`, the T/C was 94 % of control under setting [16]; 99 % of control under setting [4]; 96 % of control under setting [17]; 99 % of control under setting [5]; 88 % of control under setting [18].
`CSCCC(NCc1cc(=O)[nH]c(=O)[nH]1)C(=O)O` (configuration not stated): the T/C is, setting by setting: under setting [7], 97 % of control; under setting [9], 101 % of control; under setting [11], 95 % of control.
Regarding `O=C(O)c1c(Br)c(Br)c(Br)c(Br)c1C(=O)O`, the T/C reads like this: (dose: 100.0 mg/kg/injection, schedule: Q04DX002 (ip), vehicle: saline) 107 % of control; (dose: 200.0 mg/kg/injection, schedule: Q04DX002 (ip), vehicle: saline) 110 % of control; (dose: 400.0 mg/kg/injection, schedule: Q04DX002 (ip), vehicle: saline) 103 % of control.
Take `C=CC(=O)Nc1cccc(OC(=O)NC(C)C)c1`: the T/C was 89 % of control under setting [4], 97 % of control under setting [5] and 103 % of control under setting [18].
For the molecule `CC(C)CCCC(C)C1CCC2C3CCC4=CC5(CCC4(C)C3CCC12C)SCCS5` (configuration not stated), the T/C under setting [15] was 98 % of control, the T/C under setting [16] was 101 % of control and the T/C under setting [17] was 95 % of control.
Regarding `O=C(OCCCl)c1ccc([N+](=O)[O-])cc1`, the T/C was 95 % of control under setting [4], 95 % of control under setting [5] and 102 % of control under setting [18].
Consider `O=C(O)COc1ccc(/C=C/c2ccnc3ccccc23)cc1`, for which the T/C was 94 % of control under setting [1], 99 % of control under setting [2] and 86 % of control under setting [3].
